According to US12582660B2, “Inhibitors of the RAS oncoprotein, methods of making and methods of use thereof” (University of Louisville Research Foundation, Inc., priority 2018, dated 2026):
“Also recorded” adds a separate entry of the source.

What was measured:
HL-60 = assay: Suspension culture growth, HL-60; type: cell-based; conditions: HL-60, NRASQ61L, AML
Experimental: (§1) The compounds synthesized were tested in the 3-D soft agar drug screening, including F3, JAB-6-176 and JAB-8-60. All the compounds tested suppressed 3-D soft agar growth, but had little effect on normal 2-D growth. […] In Table 2, below, are listed different cell lines, with the results of testing F3 in the “REMARKS” column. All the cell lines are common and publicly available from the ATCC repository (www.atcc.org/en/Products/Cells_and_Microorganisms/Cell_Lines.aspx). NF1 mute are cells with defects in the NF1 gene (a negative regulator of RAS) causing hyper-activation of the wild type form of RAS. The same is true for DAB2IP deficient cells. EGFR+++ cells overexpress the EGFR receptor, which also results in the hyper-activation of wild type RAS,

S462.TY = assay: 3-D soft agar drug screening, S462.TY; type: cell-based; conditions: NF1-mute, MPNST
Experimental: (§2) The technical process of 3-D culture involves preparing molten agar at 1.6% in culture medium and adding serum to 10%. 1 ml of this agar medium is plated per well in a 12 well plate and allowed to set. This is the bottom agar and prevents any cells added to the well from touching the plastic bottom of the plate, ensuring everything remains suspended. Meanwhile the remaining stock of agar medium is kept at 42° C. to prevent setting. Target cells are then trypsinized into a single cell suspension and mixed with normal medium/drug combination. ⅔ volume molten agar medium is then added and the mixture plated onto the bottom agar. The agar/medium sets as it cools, suspending the cells in a 3D environment. Typically, within 2 weeks, tumor spheres (colonies) will form suspended in the agar. The number of colonies, or even the size, may be counted under an inverted microscope and quantified to assay tumor sphere inhibition.
(§3) The compounds synthesized were tested in the 3-D soft agar drug screening, including F3, JAB-6-176 and JAB-8-60. All the compounds tested suppressed 3-D soft agar growth, but had little effect on normal 2-D growth. […] In Table 2, below, are listed different cell lines, with the results of testing F3 in the “REMARKS” column. All the cell lines are common and publicly available from the ATCC repository (www.atcc.org/en/Products/Cells_and_Microorganisms/Cell_Lines.aspx). […]

tumor cells = assay: 3-D soft agar drug screening (cell line not stated); type: cell-based
Experimental: as §2, §3

Panc-1 = assay: 3-D soft agar drug screening, Panc-1; type: cell-based; conditions: Panc-1, K12D, pancreatic
Experimental: as §2, §3

H1299 = assay: 3-D soft agar drug screening, H1299; type: cell-based; conditions: H1299, Hras61, Lung
Experimental: as §2, §3

CaoV3 = assay: 3-D soft agar drug screening, CaoV3; type: cell-based; conditions: CaoV3, NF1mute, ovarian
Experimental: as §2, §3

[1] = test system: wild-type RAS driven tumor cells; assay: Soft agar growth of wild-type RAS driven tumor cells; type: cell-based
Experimental: (§4) Effects of the small molecule on growth in soft agar of A549 K-RAS driven lung tumor cell line and K-RAS driven pancreatic cancer cell line MiaPaCa-2 is shown. 0=carrier (DMSO). P values are less than 0.05, FIG. 5 and FIG. 6 show the effects of 10 uM of F3 on normal growth/survival in 2-D culture on plastic of the same cells. […] FIG. 7 is a graph showing that F3 is also effective against wild-type driven tumor cells, while FIG. 8 is a graph showing normal growth/survival in 2-D culture on plastic of the same cells.

SK-RC-45 = assay: 3-D soft agar drug screening, SK-RC-45; type: cell-based; conditions: SK-RC-45, EGFR++++, kidney
Experimental: as §2, §3

Mia-Paca-2 cells = assay: Anoikis assay on polyHEMA treated wells, trypan blue exclusion; type: cell-based; conditions: after 48 hours
Experimental: RAS activation leads to resistance to anoikis and inhibiting RAS function re-sensitizes […] cells to anoikis. The RAS/RalGDS pathway has been implicated as a significant component of RAS mediated anoikis suppression. […] After 48 hours the cultures were assayed for cell death by trypan blue exclusion.

Mia-Paca-2 = assay: 3-D soft agar drug screening, Mia-Paca-2; type: cell-based; conditions: Mia-Paca-2, K12C, Pancreatic
Experimental: as §2, §3

MDA-MB-231 = assay: 3-D soft agar drug screening, MDA-MB-231; type: cell-based; conditions: MDA-MB-231, Kras13D and deficient for NF1, Breast; cells don't grow well in soft agar
Experimental: as §2, §3

[2] = test system: Mia-Paca-2 (Pancreatic cancer) xenograft tumors; assay: Tumor inhibition of xenografts, Mia-Paca-2; type: in vivo, NRG mice; conditions: Mia-Paca-2 xenograft; 12 mg/kg every three days; P value 0.014
Experimental: (§5) Compound F3 was tested in vivo, using cell line xenograft tumors in NRG mice. Cell lines used included Mia-Paca-2 (Pancreatic cancer), and NCI-H441 (Lung cancer). […] The results for Mia-Paca-2 are shown in FIG. 14 and FIG. 15 ([…] treated with DMSO/PBS (carrier) or F3 drug at 12 mg/kg every three days).

[3] = Preliminary in vivo toxicity assay; design: species or system NRG mice; conditions: i.p. 10 mg/kg every other day for 2 weeks
Experimental: A preliminary in vivo toxicity assay was performed on F3. NRG mice were i.p. injected with 10 mg/kg of drug every other day for 2 weeks.

[4] = Normal 2-D growth (cell line not stated); type: cell-based
Experimental: as §1

[5] = test system: A549 K-RAS driven lung tumor cell line; assay: Normal growth/survival in 2-D culture on plastic, A549; type: cell-based; conditions: 10 uM
Experimental: as §4

A375 = assay: 3-D soft agar drug screening, A375; type: cell-based; conditions: A375, B-RAF mute, melanoma; 2 uM
Experimental: as §2, §3

HTB-185 = assay: 3-D soft agar drug screening, HTB-185; type: cell-based; conditions: HTB-185, DAB2IP deficient, Medulloblastoma
Experimental: as §2, §3

[6] = test system: K-RAS driven pancreatic cancer cell line MiaPaCa-2; assay: Normal growth/survival in 2-D culture on plastic, MiaPaCa-2; type: cell-based; conditions: 10 uM
Experimental: as §4

A549 = assay: 3-D soft agar drug screening, A549; type: cell-based; conditions: A549, K12S, Lung
Experimental: as §2, §3

[7] = target: recombinant K-RAS12v protein (Homo sapiens, UniProt P01116, G12V); assay: Thermofluor direct binding assay; conditions: for Thermofluor curve shift (direct binding): 200 uM compound/5 uM protein, K-RAS12v loaded with gamma GTPS
recombinant K-RAS12v protein, sequence (P01116 1-185 isoform P01116-2 G12V): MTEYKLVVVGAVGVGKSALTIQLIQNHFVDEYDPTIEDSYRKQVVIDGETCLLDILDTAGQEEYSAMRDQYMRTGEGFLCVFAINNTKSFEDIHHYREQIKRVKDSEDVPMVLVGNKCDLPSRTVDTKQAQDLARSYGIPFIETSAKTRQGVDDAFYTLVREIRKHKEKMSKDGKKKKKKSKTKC
Experimental: Direct binding of F3/F3a derivative to recombinant K-RAS protein. Thermofluor assays were performed to assay whether direct interactions could be detected between recombinant K-RAS protein and compound F3, or recombinant K-RAS protein and compound JAB-6-5. Recombinant K-RAS12v protein was loaded with gamma GTPS and used in binding assays with a ratio of: 200 uM compound/5 uM protein. Control compound C4 is targeted at a different protein and was not expected to bind RAS. The results are the derivative of three assays performed in triplicate. […] A predicted kD can be extrapolated from the curve: ˜25 uM at 55.5° C.

[8] = test system: NCI-H441 (Lung cancer) xenograft tumors; assay: Tumor inhibition of xenografts, NCI-H441; type: in vivo; conditions: NCI-H441 xenograft in NRG mice
Experimental: as §5

For `Cc1ccc(NC(=O)CN(C)CC(=O)Nc2cccc(F)c2)cc1S(=O)(=O)N1CCCCCC1` [Compound F3, N-(3-(Azepan-1-ylsulfonyl)-4-methylphenyl)-2-((2-((3-fluorophenyl)amino)-2-oxoethyl)(methyl)amino)-acetamide], the Growth in suspension (HL-60) was “inhibited”, the Soft agar growth (S462.TY) was “Soft agar growth inhibited” and the “3-D soft agar growth” value (tumor cells) was “suppressed”. The Soft agar growth (Panc-1) was “Soft agar growth inhibited”, the Soft agar growth (H1299) was “Soft agar growth inhibited” and the Soft agar growth (CaoV3) was “Soft agar growth inhibited”. The “Effect against wild-type driven tumor cells” value [1] was “effective”, the Soft agar growth (SK-RC-45) was “Soft agar growth inhibited” and the “anoikis (cell death by trypan blue exclusion)” value (Mia-Paca-2 cells) was “induced high levels of anoikis”. The Soft agar growth (Mia-Paca-2) was “specific inhibition; also recorded: Soft agar growth inhibited”, the Soft agar growth (MDA-MB-231) was “inhibited” and the “tumor volume as compared to controls” value [2] was “approximately half the volume”. The “signs of pain or distress” value [3] was “No obvious signs of pain or distress”, the weight loss [3] was “no weight loss” and the “normal 2-D growth” value [4] was “little effect”. For the same molecule, the “cell growth in 2-D culture on plastic” value [5] was “no effect”, the Soft agar growth (A375) was 10 uM, no effect at 2 uM and the Soft agar growth (HTB-185) was “Soft agar growth inhibited”. For the same molecule, the “cell growth in 2-D culture on plastic” value [6] was “no effect”, the Soft agar growth (A549) was “specific inhibition; also recorded: Soft agar growth inhibited” and the “Thermofluor curve shift (direct binding)” value [7] was “significant curve shift”. The Kd ([7]; at 55.5° C., read-out: predicted kD extrapolated from the curve) was about 25 µM and the “tumor volume as compared to controls” value [8] was “reduction in tumor volume”.
With `Cc1ccc(NC(=O)CN(C)CC(=O)Nc2cccc(F)c2)cc1S(=O)(=O)N1CCCC1` [JAB-6-5] the “Thermofluor curve shift (direct binding)” value [7] was “significant curve shift”.
With `CCCc1ccc(NC(=O)CN(C)CC(=O)Nc2cccc(F)c2)cc1S(=O)(=O)N1CCCCCC1` [JAB-6-176] the “3-D soft agar growth” value (tumor cells) was “suppressed” and the “normal 2-D growth” value [4] was “little effect”.
